# Source: publication PMC8459971, “Evaluation of the hepatotoxicity of the novel GPR40 (FFAR1) agonist CPL207280 in the rat and monkey” (PLoS ONE, 2021)
# Values joined by “and” are separate entries in the source; they are usually repeats but may differ in a detail not shown here. Equal values may be shown once.
# Key:
# NTCP = molecular target: T1, NTCP (Homo sapiens, UniProt Q14973); assay: Uptake transporter inhibition assay, NTCP; type: cell-based; conditions: for Accumulation (counts per minute; CPM) HEK293-NTCP / Accumulation (counts per minute; CPM) HEK293FT-MOCK: NTCP
# T1 construct: expressed in transfected cells; host or cells: HEK cells
# T1 sequence (Q14973 1-349): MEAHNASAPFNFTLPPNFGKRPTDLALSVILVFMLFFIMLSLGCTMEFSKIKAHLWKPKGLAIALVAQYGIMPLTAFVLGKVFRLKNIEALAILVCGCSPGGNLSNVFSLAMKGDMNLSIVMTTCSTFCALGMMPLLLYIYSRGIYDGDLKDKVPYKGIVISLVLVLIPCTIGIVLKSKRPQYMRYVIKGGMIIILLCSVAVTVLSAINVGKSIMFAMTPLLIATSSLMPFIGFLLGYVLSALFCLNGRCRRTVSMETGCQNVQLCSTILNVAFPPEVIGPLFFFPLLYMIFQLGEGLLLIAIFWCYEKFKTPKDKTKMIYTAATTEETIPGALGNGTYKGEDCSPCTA
# Experimental: For the uptake transporter inhibition assay, cells were washed twice with 100 μL of the appropriate buffer (HK, pH 7.4) for OATP1B1, followed by HBSS (pH 7.4) for (NTCP, OAT1, OAT2v1, OATP1A2, and OATP1B3). Uptake experiments were carried out at 37 ± 1°C in 50 μL of the respective buffer containing the probe substrate and the compound or solvent.
# MRP2 = MRP2 (Homo sapiens, UniProt Q92887); assay: Vesicular transport inhibition assay, MRP2; conditions: for Accumulation (counts per minute; CPM) with AMP / Accumulation (counts per minute; CPM) with ATP: MRP2;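 further: membrane vesicles with probe substrate plus 2 mM glutathione, incubated with 4 mM ATP or AMP (AMP as background control), vesicle-retained substrate measured by liquid scintillation counting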;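 on Accumulation (counts per minute; CPM) with AMP: ATP 4 mM vs AMP background separates transporter uptake from diffusion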;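 on Accumulation (counts per minute; CPM) with ATP: ATP 4 mM vs AMP background separates transporter uptake from diffusion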
# Sequence of MRP2 (Q92887 whole entry, the tested form may be a part): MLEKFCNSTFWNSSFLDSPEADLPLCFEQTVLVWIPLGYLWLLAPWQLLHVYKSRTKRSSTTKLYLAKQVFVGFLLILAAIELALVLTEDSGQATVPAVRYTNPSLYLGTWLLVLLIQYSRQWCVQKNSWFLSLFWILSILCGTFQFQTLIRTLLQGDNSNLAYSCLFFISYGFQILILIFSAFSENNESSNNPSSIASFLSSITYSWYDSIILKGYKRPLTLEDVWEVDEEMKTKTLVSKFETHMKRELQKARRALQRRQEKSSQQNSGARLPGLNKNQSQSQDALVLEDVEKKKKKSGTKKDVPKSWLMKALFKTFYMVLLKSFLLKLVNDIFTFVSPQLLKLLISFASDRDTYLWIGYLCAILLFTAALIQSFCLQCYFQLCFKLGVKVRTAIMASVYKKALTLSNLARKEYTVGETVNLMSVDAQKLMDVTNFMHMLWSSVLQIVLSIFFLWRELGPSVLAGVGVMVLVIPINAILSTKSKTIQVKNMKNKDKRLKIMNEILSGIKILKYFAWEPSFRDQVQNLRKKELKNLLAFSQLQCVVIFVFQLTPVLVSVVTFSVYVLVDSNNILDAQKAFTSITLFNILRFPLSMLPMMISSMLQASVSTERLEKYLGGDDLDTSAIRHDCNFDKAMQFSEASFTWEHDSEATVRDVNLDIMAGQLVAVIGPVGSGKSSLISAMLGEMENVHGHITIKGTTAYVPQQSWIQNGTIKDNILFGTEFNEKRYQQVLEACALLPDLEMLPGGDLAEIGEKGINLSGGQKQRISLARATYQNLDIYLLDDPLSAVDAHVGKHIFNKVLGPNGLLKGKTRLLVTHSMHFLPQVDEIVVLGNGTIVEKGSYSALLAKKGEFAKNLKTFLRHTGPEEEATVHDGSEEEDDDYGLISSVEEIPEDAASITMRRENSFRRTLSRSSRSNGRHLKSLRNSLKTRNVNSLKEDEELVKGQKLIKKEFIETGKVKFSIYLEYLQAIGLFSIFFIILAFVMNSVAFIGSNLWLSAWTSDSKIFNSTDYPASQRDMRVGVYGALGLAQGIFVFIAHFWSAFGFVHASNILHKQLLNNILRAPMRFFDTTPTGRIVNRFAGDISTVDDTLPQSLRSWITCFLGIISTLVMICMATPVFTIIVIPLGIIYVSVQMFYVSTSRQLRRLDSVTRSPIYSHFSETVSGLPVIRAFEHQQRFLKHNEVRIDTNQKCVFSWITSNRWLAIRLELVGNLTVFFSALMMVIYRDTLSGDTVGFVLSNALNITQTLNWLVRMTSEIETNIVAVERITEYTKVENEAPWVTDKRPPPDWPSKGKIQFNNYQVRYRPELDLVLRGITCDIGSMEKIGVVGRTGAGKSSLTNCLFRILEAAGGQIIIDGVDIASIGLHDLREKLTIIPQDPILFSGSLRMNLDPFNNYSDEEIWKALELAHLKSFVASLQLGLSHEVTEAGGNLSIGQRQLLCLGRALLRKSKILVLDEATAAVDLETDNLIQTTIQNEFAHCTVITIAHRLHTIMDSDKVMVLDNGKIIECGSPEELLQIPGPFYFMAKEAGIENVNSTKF
# Experimental: (§1) In the vesicular transport inhibition assay (for BSEP, MRP) compounds were incubated with membrane vesicle preparations and the probe substrate. Incubations were carried out in the presence of 4 mM ATP or AMP to distinguish between transporter-mediated uptake and passive diffusion into the vesicles. For MRP2 and MRP3, reactions were carried out in the presence of 2 mM glutathione. Compounds were added to the reaction mixture in 0.75 μL of solvent (1% of the final incubation volume). […] Reactions were initiated by the addition of 25 μL of 12 mM MgATP (or 12 mM AMP in assay buffer as a background control) and preincubated separately. Reactions were quenched by the addition of 200 μL of ice-cold washing buffer and immediate filtration via glass fiber filters mounted on a 96-well plate (filter plate). The filters were washed (5 × 200 μL of ice-cold washing buffer), dried, and the amount of substrate inside the filtered vesicles was determined by liquid scintillation counting.
# [1] = Stability in microsomes, mouse; type: in vitro ADME; conditions: for average DEG [%]: mouse microsomes, with cofactors
# Experimental: The final incubation volume was 500 μL. Two control compounds (verapamil and donepezil) were included for each microsomal species, along with the appropriate vehicle control. The reactions were terminated by transferring 50 μL of incubate to 100 μL methanol containing an internal standard (metoprolol) at appropriate time points (0, 10, 20, 40, 60, and 120 min for the test compound and 0, 5, 10, 20, 40, and 60 min for the control compounds). The termination plates were centrifuged at 4000 x g at 4°C for 30 min to precipitate the protein. The supernatants were then collected for analysis, and LC-MS/MS was used for detection purposes. The system consisted of an Acquity™ Binary Solvent Manager, Acquity™ 4-position heated column manager, 2777 Ultra High Pressure Autosampler, and a Xevo-TQ MS triple quadrupole mass spectrometer (Waters Ltd., Herts, UK). This process was carried out twice.
# MRP4 = molecular target: T2, MRP4 (Homo sapiens, UniProt O15439); assay: Vesicular transport inhibition assay, MRP4; conditions: for Accumulation (counts per minute; CPM) with AMP / Accumulation (counts per minute; CPM) with ATP: MRP4;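 further: membrane vesicles with MRP4 incubated with compound and probe substrate plus 4 mM ATP, or AMP as passive-diffusion background, vesicular substrate uptake read by liquid scintillation counting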;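 on Accumulation (counts per minute; CPM) with AMP: ATP 4 mM vs AMP background separates transporter uptake from diffusion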;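 on Accumulation (counts per minute; CPM) with ATP: ATP 4 mM vs AMP background separates transporter uptake from diffusion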
# T2 sequence (O15439 1-1325): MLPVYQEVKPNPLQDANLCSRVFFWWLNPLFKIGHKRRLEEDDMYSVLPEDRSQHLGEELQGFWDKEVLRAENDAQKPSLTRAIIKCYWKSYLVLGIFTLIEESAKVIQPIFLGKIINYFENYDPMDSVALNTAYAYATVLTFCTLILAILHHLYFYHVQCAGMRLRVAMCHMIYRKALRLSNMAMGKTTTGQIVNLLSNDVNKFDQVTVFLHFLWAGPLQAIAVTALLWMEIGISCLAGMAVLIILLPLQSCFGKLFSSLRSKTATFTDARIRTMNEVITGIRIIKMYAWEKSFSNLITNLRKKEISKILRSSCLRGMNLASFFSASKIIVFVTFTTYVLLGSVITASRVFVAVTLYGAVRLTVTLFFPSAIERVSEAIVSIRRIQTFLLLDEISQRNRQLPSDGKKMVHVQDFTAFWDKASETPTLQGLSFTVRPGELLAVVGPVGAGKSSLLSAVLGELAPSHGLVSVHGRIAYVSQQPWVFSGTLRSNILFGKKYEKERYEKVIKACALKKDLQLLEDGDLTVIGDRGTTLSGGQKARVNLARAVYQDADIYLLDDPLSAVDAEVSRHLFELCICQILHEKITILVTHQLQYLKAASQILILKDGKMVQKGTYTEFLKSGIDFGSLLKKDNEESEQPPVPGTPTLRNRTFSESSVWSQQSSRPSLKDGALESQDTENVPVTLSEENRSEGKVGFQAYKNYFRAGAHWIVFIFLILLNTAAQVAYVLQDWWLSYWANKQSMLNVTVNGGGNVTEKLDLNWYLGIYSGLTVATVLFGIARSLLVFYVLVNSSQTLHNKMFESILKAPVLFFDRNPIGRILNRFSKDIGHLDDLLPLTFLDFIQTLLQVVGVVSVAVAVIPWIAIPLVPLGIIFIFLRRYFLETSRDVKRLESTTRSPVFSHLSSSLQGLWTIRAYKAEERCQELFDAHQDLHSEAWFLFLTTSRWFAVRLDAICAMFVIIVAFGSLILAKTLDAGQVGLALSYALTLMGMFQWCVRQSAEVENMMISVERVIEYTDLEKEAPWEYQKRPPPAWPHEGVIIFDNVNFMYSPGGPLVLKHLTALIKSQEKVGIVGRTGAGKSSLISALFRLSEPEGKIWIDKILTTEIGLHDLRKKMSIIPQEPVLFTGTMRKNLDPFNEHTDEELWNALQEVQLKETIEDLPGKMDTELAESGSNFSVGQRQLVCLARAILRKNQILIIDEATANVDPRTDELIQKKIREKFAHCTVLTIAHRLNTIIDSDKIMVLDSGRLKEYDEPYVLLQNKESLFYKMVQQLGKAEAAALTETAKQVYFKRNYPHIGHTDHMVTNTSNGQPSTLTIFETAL
# Experimental: as §1
# [2] = Mouse (CD) microsomes, mean n = 2
compound,measurement,setting,value
"Cc1cc(OCCCS(C)(=O)=O)cc(C)c1-c1cccc(COc2ccc3c(c2)OC[C@H]3CC(=O)O)c1 [TAK-875, fasiglifam, reference compound]",Accumulation (counts per minute; CPM) HEK293-NTCP,NTCP; conc 0.10 µM,4946 CPM and 5522 CPM
same,Accumulation (counts per minute; CPM) HEK293FT-MOCK,NTCP; conc 0.10 µM,31 CPM and 28 CPM
same,Accumulation (counts per minute; CPM) HEK293-NTCP,NTCP; conc 0.30 µM,4754 CPM and 4976 CPM
same,Accumulation (counts per minute; CPM) HEK293FT-MOCK,NTCP; conc 0.30 µM,28 CPM and 36 CPM
same,Accumulation (counts per minute; CPM) HEK293-NTCP,NTCP; conc 1.00 µM,4452 CPM and 4849 CPM
same,Accumulation (counts per minute; CPM) HEK293FT-MOCK,NTCP; conc 1.00 µM,23 CPM and 31 CPM
same,Accumulation (counts per minute; CPM) HEK293-NTCP,NTCP; conc 3.00 µM,4304 CPM and 4641 CPM
same,Accumulation (counts per minute; CPM) HEK293FT-MOCK,NTCP; conc 3.00 µM,25 CPM and 22 CPM
same,Accumulation (counts per minute; CPM) HEK293-NTCP,NTCP; conc 10.00 µM,3509 CPM and 4053 CPM
same,Accumulation (counts per minute; CPM) HEK293FT-MOCK,NTCP; conc 10.00 µM,28 CPM and 26 CPM
same,Accumulation (counts per minute; CPM) HEK293-NTCP,NTCP; conc 30.00 µM,2661 CPM and 2656 CPM
same,Accumulation (counts per minute; CPM) HEK293FT-MOCK,NTCP; conc 30.00 µM,25 CPM and 30 CPM
same,Accumulation (counts per minute; CPM) HEK293-NTCP,NTCP; conc 100.00 µM,1608 CPM and 1569 CPM
same,Accumulation (counts per minute; CPM) HEK293FT-MOCK,NTCP; conc 100.00 µM,25 CPM and 33 CPM
same,IC50,"NTCP; transformed HEK cells, up to 300μM, n = 2",53.1 µM
same,IC50,MRP2,48.1 µM
same,Accumulation (counts per minute; CPM) with AMP,MRP2; conc 0.07 µM,234 CPM and 221 CPM
same,Accumulation (counts per minute; CPM) with ATP,MRP2; conc 0.07 µM,3160 CPM and 3355 CPM
same,Accumulation (counts per minute; CPM) with AMP,MRP2; conc 0.21 µM,218 CPM and 217 CPM
same,Accumulation (counts per minute; CPM) with ATP,MRP2; conc 0.21 µM,3318 CPM and 3579 CPM
same,Accumulation (counts per minute; CPM) with AMP,MRP2; conc 0.62 µM,249 CPM and 186 CPM
same,Accumulation (counts per minute; CPM) with ATP,MRP2; conc 0.62 µM,3453 CPM and 3166 CPM
same,Accumulation (counts per minute; CPM) with AMP,MRP2; conc 16.67 µM,211 CPM and 200 CPM
same,Accumulation (counts per minute; CPM) with ATP,MRP2; conc 16.67 µM,2989 CPM and 3430 CPM
same,Accumulation (counts per minute; CPM) with AMP,MRP2; conc 50.00 µM,220 CPM and 191 CPM
same,Accumulation (counts per minute; CPM) with ATP,MRP2; conc 50.00 µM,1700 CPM and 1670 CPM
same,half-life at 3 μM,[1]; [2],343 min
same,microsomal CLint at 3 μM,[1]; [2],4 µL/min/mg
same,average DEG [%],[1]; 0 min,100.0%
same,average DEG [%],[1]; 20 min,83.6%
same,average DEG [%],[1]; 40 min,92.9%
same,average DEG [%],[1]; 60 min,79.0%
same,IC50,MRP4,6.9 µM
same,Accumulation (counts per minute; CPM) with AMP,MRP4; conc 0.07 µM,1270 CPM and 1266 CPM
same,Accumulation (counts per minute; CPM) with ATP,MRP4; conc 0.07 µM,5265 CPM and 5304 CPM
same,Accumulation (counts per minute; CPM) with AMP,MRP4; conc 0.21 µM,1193 CPM and 1241 CPM
same,Accumulation (counts per minute; CPM) with ATP,MRP4; conc 0.21 µM,5360 CPM and 5232 CPM
same,Accumulation (counts per minute; CPM) with AMP,MRP4; conc 0.62 µM,1249 CPM and 1265 CPM
same,Accumulation (counts per minute; CPM) with ATP,MRP4; conc 0.62 µM,5330 CPM and 5164 CPM
same,Accumulation (counts per minute; CPM) with AMP,MRP4; conc 16.67 µM,1183 CPM and 1161 CPM
same,Accumulation (counts per minute; CPM) with ATP,MRP4; conc 16.67 µM,1970 CPM and 2307 CPM
same,Accumulation (counts per minute; CPM) with AMP,MRP4; conc 50.00 µM,1007 CPM and 1016 CPM
same,Accumulation (counts per minute; CPM) with ATP,MRP4; conc 50.00 µM,1338 CPM and 1487 CPM
